Values after ≈ are worked out from the molar mass of the structure shown. Values joined by “and” are separate entries in the source; they are usually repeats but may differ in a detail not shown here. Equal entries are not always repeated.
Experiments:
Assay type in all cases: functional
Candida albicans [1] = experiment: Percent resistance against Candida albicans (40 clinical isolates) at 256 micro g/mL (pH=5.8), activity is expressed as R%.
Candida albicans [2] = experiment: Resistance against Candida. albicans (40 clinical isolates) at 256 ug/mL (pH=7.2), activity is expressed as R%.
Candida albicans [3] = experiment: Inhibitory activity against Candida albicans (40 clinical isolates), determined at pH-5.8
Candida albicans [4] = experiment: Inhibitory activity against Candida albicans (40 clinical isolates), determined at pH-7.2
Candida [5] = experiment: Inhibitory activity against Candida. species. (40 clinical isolates), determined at pH-5.8
Candida [6] = experiment: Inhibitory activity against Candida. species (40 clinical isolates), determined at pH-5.8
Candida [7] = experiment: 50% inhibitory activity against the Candida. species (40 clinical isolates) was determined at pH-7.2
Candida [8] = experiment: 90% inhibitory activity against the Candida. species (40 clinical isolates) was determined at pH-7.2
Candida [9] = experiment: The compound was tested for percent resistance against all Candida. species (40 clinical isolates) at 256 ug/mL (pH=7.2), activity is expressed as R%.
Candida albicans [10] = experiment: Inhibitory activity against the Candida albicans (40 clinical isolates), determined at pH-5.8
Candida albicans [11] = experiment: Inhibitory activity against the Candida albicans (40 clinical isolates), determined at pH-7.2
Candida albicans [12] = experiment: 50% inhibitory activity against Candida albicans (40 clinical isolates) determined at pH-5.8
Candida [13] = experiment: Inhibitory activity against the Candida. species. (40 clinical isolates) was determined at pH-7.2
Candida [14] = experiment: The compound was tested for percent resistance against all Candida. species (40 clinical isolates) at 256 ug/mL (pH=5.8), activity is expressed as R%.
Candida albicans [15] = experiment: 50% inhibitory activity against Candida albicans (40 clinical isolates) determined at pH-7.2
Candida [16] = experiment: Inhibitory activity against Candida. species. (40 clinical isolates), determined at pH-7.2
Candida [17] = experiment: Resistance against all Candida. species (40 clinical isolates) at 256 micro g/mL (pH=5.8). Activity is expressed as R%.
Candida [18] = experiment: Percent resistance against all Candida. species (40 clinical isolates) at 256 micro g/mL (pH=7.2), activity is expressed as R%.
Candida [19] = experiment: 90% inhibitory activity against Candida. species (40 clinical isolates) determined at pH-7.2
Oryctolagus cuniculus [20] = experiment: Topical comparison with bifonazole in white male rabbits at 1% concentration of compound
Oryctolagus cuniculus [21] = experiment: Topical comparison with bifonazole in white male rabbits by treatment twice daily on 15 consecutive days starting 48 hr after inoculation.
Candida albicans [22] = experiment: The compound was tested for percent resistance against Candida. albicans (40 clinical isolates) at 256 micro g/mL (pH=7.2), activity is expressed as R%.
Candida [23] = experiment: The compound was tested for percent resistance against all Candida. species (40 clinical isolates) at 256 micro g/mL (pH=5.8), activity is expressed as R%.
[24] = Candida albicans, read-out: MIC50

Row | Compound | R (Candida albicans [1]) [%] | R (Candida albicans [2]) [%] | MIC (Candida albicans [3]) [µg/mL] | MIC (Candida albicans [4]) [µg/mL] | MIC (Candida [5]) [µg/mL] | MIC50 (Candida [6]) [µg/mL] | MIC90 (Candida [6]) [µg/mL] | MIC50 (Candida [7]) [µg/mL] | MIC90 (Candida [8]) [µg/mL] | MIC90 (Candida albicans [10]) [µg/mL] | MIC90 (Candida albicans [11]) [µg/mL] | MIC50 (Candida albicans [12]) [µg/mL] | MIC50 (Candida albicans [15]; [24]) [µg/mL] | MIC (Candida [16]) [µg/mL] | R (Candida [17]) [%] | R (Candida [18]) [%] | also measured
1 | c1ccc(-c2c[nH]cc2C(c2ccccc2)n2ccnc2)cc1 (stereo unspecified) | 0 | 2.7 | 53.9 (≈ 180 µM) | > 35.4 | 88 (≈ 294 µM) | 128 (≈ 428 µM) | 128 (≈ 428 µM) | > 256 | > 256 | 128 (≈ 428 µM) | 64 (≈ 214 µM) | 32 (≈ 107 µM) | 32 (≈ 107 µM) | – | – | – | R (Candida [9]): 75%; MIC (Candida [13]): > 396 µg/mL; R (Candida [14]): 0%
2 | Fc1ccc(C(c2c[nH]cc2-c2ccccc2)n2ccnc2)cc1 (stereo unspecified) | 0 | 0 | 71.2 (≈ 224 µM) | 55.1 (≈ 174 µM) | 99.5 (≈ 314 µM) | 64 (≈ 202 µM) | 128 (≈ 403 µM) | 64 (≈ 202 µM) | 128 (≈ 403 µM) | 128 (≈ 403 µM) | 64 (≈ 202 µM) | – | 32 (≈ 101 µM) | 74.5 (≈ 235 µM) | 0 | 0 | MIC50 (Candida albicans [15]): 64 µg/mL (≈ 202 µM)
3 | Cc1ccc(C(c2c[nH]cc2-c2ccccc2)n2ccnc2)cc1 (stereo unspecified) | 0 | 0 | 133 (≈ 425 µM) | 48.4 (≈ 154 µM) | 71 (≈ 227 µM) | 64 (≈ 204 µM) | 256 (≈ 817 µM) | 64 (≈ 204 µM) | 64 (≈ 204 µM) | 256 (≈ 817 µM) | 64 (≈ 204 µM) | – | 32 (≈ 102 µM) | 51.6 (≈ 165 µM) | 0 | 0 | MIC50 (Candida albicans [15]): 64 µg/mL (≈ 204 µM)
4 | O=[N+]([O-])c1ccc(C(c2c[nH]cc2-c2ccccc2)n2ccnc2)cc1 (stereo unspecified) | 0 | 0 | 56.7 (≈ 165 µM) | 5.18 (≈ 15 µM) | 182 (≈ 529 µM) | 128 (≈ 372 µM) | > 256 | 256 (≈ 743 µM) | 256 (≈ 743 µM) | 128 (≈ 372 µM) | 64 (≈ 186 µM) | 8 (≈ 23.2 µM) | 8 (≈ 23.2 µM) | > 192 | 0 | 20 | –
5 | Nc1ccc(C(c2c[nH]cc2-c2ccccc2)n2ccnc2)cc1 (stereo unspecified) | 0 | 0 | 142 (≈ 453 µM) | 162 (≈ 515 µM) | > 327 | 256 (≈ 814 µM) | > 256 | 256 (≈ 814 µM) | > 256 | 256 (≈ 814 µM) | 128 (≈ 407 µM) | 128 (≈ 407 µM) | 128 (≈ 407 µM) | > 331 | 80 | 80 | –
6 | Clc1ccc(C(c2c[nH]cc2-c2ccccc2)n2ccnc2)cc1 (stereo unspecified) | 0 | 0 | 47.3 (≈ 142 µM) | 21.3 (≈ 63.8 µM) | 51.4 (≈ 154 µM) | 64 (≈ 192 µM) | 64 (≈ 192 µM) | 32 (≈ 95.9 µM) | 128 (≈ 383 µM) | 64 (≈ 192 µM) | 128 (≈ 383 µM) | – | – | 40 (≈ 120 µM) | 0 | 0 | –
7 | Clc1ccc(-c2c[nH]cc2C(c2ccccc2)n2ccnc2)cc1 (stereo unspecified) | 0 | 0 | 12.8 (≈ 38.3 µM) | 6.4 (≈ 19.2 µM) | 44.4 (≈ 133 µM) | 32 (≈ 95.9 µM) | 32 (≈ 95.9 µM) | 32 (≈ 95.9 µM) | – | 32 (≈ 95.9 µM) | 16 (≈ 47.9 µM) | 16 (≈ 47.9 µM) | 2 (≈ 5.99 µM) | 46.5 (≈ 139 µM) | 0 | 0 | MIC90 (Candida [19]): 128 µg/mL (≈ 383 µM); Percentage of animals (Oryctolagus cuniculus [20]): 50% and 83%; No. of animals (Oryctolagus cuniculus [21]): 33%
8 | c1ccc(-c2ccc(C(c3ccccc3)n3ccnc3)cc2)cc1 (stereo unspecified) [BIFONAZOLE] | 0 | – | 3.72 (≈ 12 µM) | 4.1 (≈ 13.2 µM) | 7.5 (≈ 24.2 µM) | 8 (≈ 25.8 µM) | 8 (≈ 25.8 µM) | 4 (≈ 12.9 µM) | 16 (≈ 51.5 µM) | 16 (≈ 51.5 µM) | 16 (≈ 51.5 µM) | 4 (≈ 12.9 µM) | 4 (≈ 12.9 µM) | 4.5 (≈ 14.5 µM) | 0 | 0 | R (Candida albicans [22]): 0%; Percentage of animals (Oryctolagus cuniculus [20]): 3% and 6% and 10%
9 | CC(=O)N1CCN(c2ccc(OC[C@H]3CO[C@](Cn4ccnc4)(c4ccc(Cl)cc4Cl)O3)cc2)CC1 [KETOCONAZOLE] | 0 | – | 8.6 (≈ 16.2 µM) | 8.3 (≈ 15.6 µM) | 16.9 (≈ 31.8 µM) | 4 (≈ 7.53 µM) | 32 (≈ 60.2 µM) | 4 (≈ 7.53 µM) | 32 (≈ 60.2 µM) | 32 (≈ 60.2 µM) | 32 (≈ 60.2 µM) | 0.5 (≈ 0.941 µM) | 2 (≈ 3.76 µM) | 8.1 (≈ 15.2 µM) | – | 0 | R (Candida albicans [22]): 0%; Fungicidal (Candida [23]): 0%
10 | Clc1ccc(COC(Cn2ccnc2)c2ccc(Cl)cc2Cl)c(Cl)c1 (stereo unspecified) [MICONAZOLE] | 0 | 0 | 5.9 (≈ 14.2 µM) | 6.1 (≈ 14.7 µM) | 13 (≈ 31.2 µM) | 2 (≈ 4.81 µM) | 32 (≈ 76.9 µM) | 16 (≈ 38.4 µM) | – | 32 (≈ 76.9 µM) | 32 (≈ 76.9 µM) | 0.5 (≈ 1.2 µM) | 2 (≈ 4.81 µM) | 13 (≈ 31.2 µM) | 0 | 0 | MIC90 (Candida [19]): 32 µg/mL (≈ 76.9 µM)
